Laboratory results reported in ChEMBL document CHEMBL1821665, “Structure-based design and optimization of potent renin inhibitors on 5- or 7-azaindole-scaffolds” (Bioorg Med Chem Lett, 2011).

How the values were obtained:
Renin [1] = target: T1, Renin (Homo sapiens, UniProt P00797); test: Inhibition of recombinant human renin using Dabcyl-gamma-Abu-Ile-His-Pro-Phe-His-Leu-Val-Ile-His-Thr-EDANS as substrate after 2 hrs by spectrofluorometry
T1 sequence (P00797 whole entry): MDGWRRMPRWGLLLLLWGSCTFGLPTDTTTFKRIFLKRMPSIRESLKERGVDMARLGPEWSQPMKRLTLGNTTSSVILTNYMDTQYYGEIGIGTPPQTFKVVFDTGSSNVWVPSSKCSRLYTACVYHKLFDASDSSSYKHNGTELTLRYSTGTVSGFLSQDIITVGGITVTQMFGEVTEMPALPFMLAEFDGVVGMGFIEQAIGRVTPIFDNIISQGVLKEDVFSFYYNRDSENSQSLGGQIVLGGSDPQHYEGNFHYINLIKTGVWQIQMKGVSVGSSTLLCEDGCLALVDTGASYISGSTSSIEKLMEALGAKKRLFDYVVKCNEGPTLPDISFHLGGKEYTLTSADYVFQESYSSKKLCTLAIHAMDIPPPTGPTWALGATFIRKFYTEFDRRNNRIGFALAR

Renin [2] = target: T1, Renin; test: Inhibition of recombinant human renin using Dabcyl-gamma-Abu-Ile-His-Pro-Phe-His-Leu-Val-Ile-His-Thr-EDANS as substrate preincubated for 30 mins followed by 30 mins incubation in human plasma by spectrofluorometry
[3] = Apparent permeability from apical to basolateral side of human Caco2/TC7 cells at 20 uM after 2 hrs in presence of 0.5 to 5% BSA at pH 6.5 to 7.4; format: ADME, cell-based; conditions: Caco-2, pH 6.5
Renin [4] = target: T1, Renin; test: Inhibition of recombinant human renin using Dabcyl-gamma-Abu-Ile-His-Pro-Phe-His-Leu-Val-Ile-His-Thr-EDANS as substrate preincubated for 30 mins followed by 30 mins incubation in mouse C57BL/6 plasma by spectrofluorometry

SMILES	IC50 (Renin [1])	also measured
O=C(c1c(Oc2ccccc2)n(-c2ccccc2)c2ncccc12)N1CCNCC1	1.83 µM	–
O=C(c1c(Oc2ccccc2F)n(-c2ccccc2)c2ncccc12)N1CCNCC1	5.06 µM	–
Cc1cccc(F)c1Oc1c(C(=O)N2CCNCC2)c2cccnc2n1-c1ccccc1	0.231 µM	–
Cc1ccc(F)cc1Oc1c(C(=O)N2CCNCC2)c2cccnc2n1-c1ccccc1	0.396 µM	–
Cc1c(F)cc(F)cc1Oc1c(C(=O)N2CCNCC2)c2cccnc2n1-c1ccccc1	0.504 µM	–
O=C(c1c(Cc2ccccc2)n(-c2ccccc2)c2ncccc12)N1CCNCC1	6.41 µM	–
COc1cnc2c(c1)c(C(=O)N1CCNCC1)c(Cc1cccc(F)c1C)n2-c1ccccc1	4.67 µM	–
CCc1ccnc2c1c(C(=O)N1CCNCC1)c(Oc1cc(F)ccc1C)n2-c1ccccc1	1.23 µM	–
Cc1ccccc1Oc1c(C(=O)N2CCNCC2)c2cnccc2n1-c1ccccc1	0.847 µM	–
Cc1c(F)cc(F)cc1Oc1c(C(=O)N2CCNCC2)c2cnccc2n1-c1ccccc1	0.65 µM	–
O=C(c1c(Cc2ccccc2)n(-c2ccccc2)c2ccncc12)N1CCNCC1	3.4 µM	–
Cc1ccccc1Cc1c(C(=O)N2CCNCC2)c2cnccc2n1-c1ccccc1	0.52 µM	–
COC[C@H]1CN(C(=O)c2c(Cc3cccc(F)c3C)n(C3CCCCC3)c3cc(OC)ncc23)CCN1	4.09 µM	–
COc1cc2c(cn1)c(C(=O)N1CCN[C@@H](CO)C1)c(Cc1cccc(F)c1C)n2C1CCCCC1	3.26 µM	–

Now those with a lower IC50 (Renin [1]), led by results:

IC50 (Renin [1])	SMILES	also measured
0.098 µM	Cc1ccccc1Oc1c(C(=O)N2CCNCC2)c2cccnc2n1-c1ccccc1	–
0.006 µM	Cc1ccc(F)cc1Oc1c(C(=O)N2CCNCC2)c2cc(O)cnc2n1-c1ccccc1	IC50 (Renin [2]): 0.189 µM; Papp A→B at 2 h, 20 µM [3]: 0.45 ×10⁻⁶ cm/s; IC50 (Renin [4]): 0.057 µM
0.006 µM	Cc1c(F)cccc1Cc1c(C(=O)N2CCNCC2)c2cc(O)cnc2n1-c1ccccc1	IC50 (Renin [2]): 0.095 µM; IC50 (Renin [4]): 0.159 µM
0.015 µM	COc1ccc2c(C(=O)N3CCNCC3)c(Oc3cc(F)ccc3C)n(-c3ccccc3)c2n1	–
0.089 µM	CCc1ccnc2c1c(C(=O)N1CCNCC1)c(Cc1cccc(F)c1C)n2-c1ccccc1	–
0.186 µM	CCCc1ccnc2c1c(C(=O)N1CCNCC1)c(Oc1c(C)cccc1C)n2-c1ccccc1	–
0.218 µM	CCCc1ccnc2c1c(C(=O)N1CCNCC1)c(Cc1cccc(F)c1C)n2-c1ccccc1	–
0.123 µM	Cc1ccc(F)cc1Oc1c(C(=O)N2CCNCC2)c2cnccc2n1-c1ccccc1	–
0.181 µM	Cc1c(F)cccc1Oc1c(C(=O)N2CCNCC2)c2cnccc2n1-c1ccccc1	–
0.008 µM	Cc1c(F)cccc1Cc1c(C(=O)N2CCNCC2)c2cnccc2n1-c1ccccc1	IC50 (Renin [2]): 0.2 µM; Papp A→B at 2 h, 20 µM [3]: 0.64 ×10⁻⁶ cm/s; IC50 (Renin [4]): 0.41 µM
0.15 µM	COc1cc2c(cn1)c(C(=O)N1CCNCC1)c(Cc1cccc(F)c1C)n2C1CCCCC1	–
0.006 µM	COc1cc2c(cn1)c(C(=O)N1CCNCC1)c(Cc1cccc(F)c1C)n2-c1ccccc1	IC50 (Renin [2]): 0.328 µM; Papp A→B at 2 h, 20 µM [3]: 2.2 ×10⁻⁶ cm/s
0.073 µM	COc1cc2c(cn1)c(C(=O)N1CCNCC1)c(Oc1cc(F)ccc1C)n2-c1ccccc1	–
0.024 µM	Cc1ccc(F)cc1Oc1c(C(=O)N2CCNCC2)c2cnc(O)cc2n1-c1ccccc1	–
0.116 µM	Cc1c(F)cccc1Cc1c(C(=O)N2CCNCC2)c2cnc(O)cc2n1C1CCCCC1	–
0.088 µM	Cc1c(F)cccc1Cc1c(C(=O)N2CCNCC2)c2cnc(O)cc2n1-c1ccccc1	–
0.099 µM	COc1cc2c(cn1)c(C(=O)N1CCNCC1)c(Oc1c(C)cccc1C)n2C1CCCCC1	–
0.098 µM	Cc1ccc(F)c(C)c1Oc1c(C(=O)N2CCNCC2)c2cnc(O)cc2n1C1CCCCC1	–
0.011 µM	Cc1ccc(F)cc1Oc1c(C(=O)N2CCN[C@@H](C)C2)c2cnc(O)cc2n1C1CCCCC1	–
0.037 µM	Cc1ccc(F)c(C)c1Oc1c(C(=O)N2CCN[C@@H](C)C2)c2c[nH]c(=O)cc2n1C1CCCCC1	–
0.154 µM	Cc1c(F)cccc1Cc1c(C(=O)N2CCN[C@@H](C)C2)c2c[nH]c(=O)cc2n1C1CCCCC1	–
